Test results taken from ChEMBL document CHEMBL5523755, “Design, Synthesis, and Biological Evaluation of 1,4-Dihydropyridine-Indole as a Potential Antidiabetic Agent via GLUT4 Translocation Stimulation” (J Med Chem, 2024).
The source made the active and inactive calls. The rule behind the calls is not given here.

Columns and labels:
[1] = target: T1, Solute carrier family 2, facilitated glucose transporter member 4 (Rattus norvegicus) (UniProt P19357); experiment: Induction of GLUT4 translocation in rat L6-GLUT4myc skeletal muscle cells assessed as translocation to cell surface by measuring fold stimulation at 10 uM measured after 1 hr incubation by antibody-coupled colorimetric assay relative to control; format: cell-based; settings: filed as modulator
T1 sequence (whole entry): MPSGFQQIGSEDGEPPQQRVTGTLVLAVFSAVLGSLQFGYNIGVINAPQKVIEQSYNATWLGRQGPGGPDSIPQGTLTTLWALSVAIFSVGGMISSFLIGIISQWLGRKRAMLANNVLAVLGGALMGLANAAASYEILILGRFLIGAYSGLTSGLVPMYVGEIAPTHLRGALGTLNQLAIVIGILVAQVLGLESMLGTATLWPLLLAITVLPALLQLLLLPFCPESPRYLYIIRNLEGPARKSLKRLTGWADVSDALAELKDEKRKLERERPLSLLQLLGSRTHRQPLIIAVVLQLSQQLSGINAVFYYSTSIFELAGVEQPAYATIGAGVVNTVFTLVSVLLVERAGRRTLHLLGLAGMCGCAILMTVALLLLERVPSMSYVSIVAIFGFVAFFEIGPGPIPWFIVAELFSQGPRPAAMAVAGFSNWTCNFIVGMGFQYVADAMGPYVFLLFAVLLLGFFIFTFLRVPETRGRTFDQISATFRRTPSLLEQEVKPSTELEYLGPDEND

[2] = target: T1, Solute carrier family 2, facilitated glucose transporter member 4 (Rattus norvegicus); experiment: Induction of GLUT4 translocation in rat L6-GLUT4myc skeletal muscle cells assessed as translocation to cell surface by measuring fold stimulation measured after 16 hrs incubation by antibody-coupled colorimetric assay relative to control; format: cell-based; settings: filed as modulator, dose 5-25 µM
[3] = MRT in Sprague-Dawley rat at 100 mg/kg, po measured after 48 hrs by LC-MS/MS analysis; format: ADME, organism-based; settings: in vivo
[4] = target: T1, Solute carrier family 2, facilitated glucose transporter member 4 (Rattus norvegicus); experiment: Induction of GLUT4 translocation in rat L6-GLUT4myc skeletal muscle cells assessed as translocation to cell surface by measuring fold stimulation at 10 uM measured after 16 hrs incubation in presence of wortmannin PI3 Kinase inhibitor by antibody-coupled colorimetric assay; format: cell-based
[5] = Clearance in Sprague-Dawley rat at 100 mg/kg, po measured after 48 hrs by LC-MS/MS analysis; format: ADME, organism-based; settings: in vivo
[6] = Elimination half life in Sprague-Dawley rat at 100 mg/kg, po measured after 48 hrs by LC-MS/MS analysis; format: ADME, organism-based; settings: in vivo, read-out: beta t1/2 (converted)
[7] = target: T1, Solute carrier family 2, facilitated glucose transporter member 4 (Rattus norvegicus); experiment: Induction of GLUT4 translocation in rat L6-GLUT4myc skeletal muscle cells assessed as translocation to cell surface by measuring fold stimulation at 10 uM measured after 16 hrs incubation in presence of compound c AMPK inhibitor by antibody-coupled colorimetric assay; format: cell-based; settings: filed as modulator
[8] = Apparent volume of distribution in Sprague-Dawley rat at 100 mg/kg, po measured after 48 hrs by LC-MS/MS analysis; format: ADME, organism-based; settings: in vivo
[9] = Stability of the compound in simulated gastric fluid (SGF) assessed as compound remaining measured upto 120 mins relative to control; format: ADME; settings: read-out: Stability
Rattus norvegicus = experiment: Antihyperglycemic activity in STZ-induced Sprague-Dawley rat diabetic model assessed as decrease in blood glucose at 100 mg/kg, po measured upto 300 mins; format: functional, organism-based
[10] = target: RAC-alpha serine/threonine-protein kinase (Rattus norvegicus) (UniProt P47196); experiment: Induction of AKT phosphorylation at Ser 473 in rat L6-GLUT4myc skeletal muscle cells at 10 uM measured after 16 hrs incubation by immunoblotting analysis; format: cell-based; settings: filed as modulator
[11] = Cmax in Sprague-Dawley rat at 100 mg/kg, po measured after 48 hrs by LC-MS/MS analysis; format: ADME, organism-based; settings: in vivo
[12] = AUC in Sprague-Dawley rat at 100 mg/kg, po measured after 48 hrs by LC-MS/MS analysis; format: ADME, organism-based; settings: in vivo
[13] = Tmax in Sprague-Dawley rat at 100 mg/kg, po measured after 48 hrs by LC-MS/MS analysis; format: ADME, organism-based; settings: in vivo
[14] = Stability of the compound in simulated physiological fluid (SPF) assessed as compound remaining measured upto 120 mins relative to control; format: ADME; settings: read-out: Stability
[15] = target: T1, Solute carrier family 2, facilitated glucose transporter member 4 (Rattus norvegicus); experiment: Induction of insulin-induced GLUT4 translocation in rat L6-GLUT4myc skeletal muscle cells assessed as translocation to cell surface at 10 uM measured after 16 hrs incubation (final 3 hrs under serum starved medium) followed by stimulated with 100 nM insulin for 20 mins by antibody-coupled colorimetric assay; format: cell-based
[16] = Stability of the compound in rat plasma assessed as compound remaining measured upto 120 mins relative to control; format: ADME, cell-free; settings: read-out: Stability
[17] = Stability of the compound in simulated intestinal fluid (SIF) assessed as compound remaining measured upto 120 mins relative to control; format: ADME; settings: read-out: Stability
L6-GLUT4myc = experiment: Induction of GPR40 expression in rat L6-GLUT4myc skeletal muscle cells assessed as increase in mRNA level at 10 uM measured after overnight incubation by RT-PCR analysis; format: functional, cell-based; settings: filed as activator
[18] = target: T2, Beta-galactosidase (Homo sapiens) (UniProt P16278); experiment: Inhibition of beta-galactosidase (unknown origin) at 100 uM relative to control
T2 sequence (whole entry): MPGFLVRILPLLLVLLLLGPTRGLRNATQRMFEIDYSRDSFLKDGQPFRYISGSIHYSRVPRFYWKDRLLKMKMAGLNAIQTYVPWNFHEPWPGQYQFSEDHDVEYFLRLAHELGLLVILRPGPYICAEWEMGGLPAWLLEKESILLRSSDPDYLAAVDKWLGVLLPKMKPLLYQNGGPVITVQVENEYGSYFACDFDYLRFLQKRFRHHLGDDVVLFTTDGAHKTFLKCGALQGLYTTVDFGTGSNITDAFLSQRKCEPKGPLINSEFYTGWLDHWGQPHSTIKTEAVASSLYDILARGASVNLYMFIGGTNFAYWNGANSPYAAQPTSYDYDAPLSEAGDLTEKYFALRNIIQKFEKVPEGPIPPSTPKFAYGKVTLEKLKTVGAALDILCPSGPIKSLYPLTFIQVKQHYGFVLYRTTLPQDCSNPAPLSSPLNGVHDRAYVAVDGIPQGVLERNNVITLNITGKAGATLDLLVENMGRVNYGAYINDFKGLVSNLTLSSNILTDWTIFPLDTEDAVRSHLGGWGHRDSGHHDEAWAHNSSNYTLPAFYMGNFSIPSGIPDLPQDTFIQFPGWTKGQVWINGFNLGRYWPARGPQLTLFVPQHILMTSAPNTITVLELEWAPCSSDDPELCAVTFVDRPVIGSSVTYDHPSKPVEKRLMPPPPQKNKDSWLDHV

[19] = target: T1, Solute carrier family 2, facilitated glucose transporter member 4 (Rattus norvegicus); experiment: Induction of GLUT4 translocation in rat L6-GLUT4myc skeletal muscle cells assessed as translocation to cell surface by measuring fold stimulation at 500 uM measured after 1 hr incubation by antibody-coupled colorimetric assay relative to control; format: cell-based; settings: filed as modulator

Chain of RAC-alpha serine/threonine-protein kinase (Rattus norvegicus) (P47196 whole entry): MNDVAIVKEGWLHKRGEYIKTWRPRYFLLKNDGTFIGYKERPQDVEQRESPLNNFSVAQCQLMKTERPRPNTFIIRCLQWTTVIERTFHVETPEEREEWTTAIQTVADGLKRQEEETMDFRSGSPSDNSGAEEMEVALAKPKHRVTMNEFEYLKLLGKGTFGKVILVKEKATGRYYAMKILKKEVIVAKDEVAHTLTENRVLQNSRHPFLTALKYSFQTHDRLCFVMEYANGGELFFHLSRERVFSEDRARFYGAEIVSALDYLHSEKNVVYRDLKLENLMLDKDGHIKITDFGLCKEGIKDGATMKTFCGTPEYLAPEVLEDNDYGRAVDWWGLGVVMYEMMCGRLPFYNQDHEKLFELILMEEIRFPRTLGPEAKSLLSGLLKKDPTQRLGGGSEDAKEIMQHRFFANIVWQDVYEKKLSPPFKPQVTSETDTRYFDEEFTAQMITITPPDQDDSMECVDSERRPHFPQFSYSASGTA

| SMILES | fold change (FC) [1] | further results |
| --- | --- | --- |
| CCNC(=O)C1=C(C)NC2=C(C(=O)CC(C)(C)C2)C1c1ccc(Cl)c(Cl)c1 (stereo not drawn) | 1.16 |  |
| COc1ccc(C2C(C(=O)NCCc3c[nH]c4ccccc34)=C(C)NC3=C2C(=O)CCC3)cc1OC (stereo not drawn) | 1.48 |  |
| CC1=C(C(=O)NCCc2c[nH]c3ccccc23)C(c2cccc([N+](=O)[O-])c2)C2=C(CC(C)(C)CC2=O)N1 (stereo not drawn) | 1.86 | Activity [2]: Dose-Dependent Effect |
| COc1ccc(C2C(C(=O)NCCc3c[nH]c4ccccc34)=C(C)NC3=C2C(=O)CC(C)(C)C3)cc1 (stereo not drawn) | 1.39 |  |
| COc1cc(C2C(C(=O)NCCc3c[nH]c4ccccc34)=C(C)NC3=C2C(=O)CCC3)cc(OC)c1OC (stereo not drawn) | 1.79 | Activity [2]: Dose-Dependent Effect |
| CC1=C(C(=O)NCCc2c[nH]c3ccccc23)C(c2ccc([N+](=O)[O-])cc2)C2=C(CC(C)(C)CC2=O)N1 (stereo not drawn) | 1.72 |  |
| CC1=C(C(=O)NCCc2c[nH]c3ccccc23)C(c2scnc2C)C2=C(CC(C)(C)CC2=O)N1 (stereo not drawn) | 1 |  |
| CC1=C(C(=O)NCCc2c[nH]c3ccccc23)C(c2ccc(F)cc2)C2=C(CC(C)(C)CC2=O)N1 (stereo not drawn) | 1 |  |
| CC1=C(C(=O)NCCc2c[nH]c3ccccc23)C(c2ccc(Cl)c(Cl)c2)C2=C(CC(C)(C)CC2=O)N1 (stereo not drawn) | 2.96 | MRT [3]: 20.8 h; Activity [4]: inactive; CL/F [5]: 254 L/h/kg; half-life [6]: 14.3 h; Activity [7]: Active; Activity [2]: Dose-Dependent Effect; Vd(app) [8]: 5281.28 L/kg; remaining at 2 h [9]: 90.8%; Activity (Rattus norvegicus): Active; Activity [10]: Active; Cmax [11]: 0.0517 µg/mL; AUC at 48 h [12]: 0.367 µg·h/mL; Tmax [13]: 0.42 h; remaining at 2 h [14]: 96.2%; Activity [15]: inactive; remaining at 2 h [16]: 90.2%; remaining at 2 h [17]: 91.1%; Activity (L6-GLUT4myc): Active |
| CC1=C(C(=O)NCCc2c[nH]c3ccccc23)C(c2ccc(C#N)cc2)C2=C(CC(C)(C)CC2=O)N1 (stereo not drawn) | 0.96 |  |
| CSc1ccc(C2C(C(=O)NCCc3c[nH]c4ccccc34)=C(C)NC3=C2C(=O)CC(C)(C)C3)cc1 (stereo not drawn) | 1.33 |  |
| CC1=C(C(=O)NCCc2c[nH]c3ccccc23)C(c2ccc(C(F)(F)F)cc2)C2=C(CC(C)(C)CC2=O)N1 (stereo not drawn) | 1.58 |  |
| CC1=C(C(=O)NCCc2c[nH]c3ccccc23)C(c2ccco2)C2=C(CC(C)(C)CC2=O)N1 (stereo not drawn) | 2.01 | Activity [2]: Dose-Dependent Effect |
| CC1=C(C(=O)NCCc2c[nH]c3ccccc23)C(c2cccc(Cl)c2Cl)C2=C(CC(C)(C)CC2=O)N1 (stereo not drawn) | 1.52 |  |
| CC1=C(C(=O)Nc2ccccc2)C(c2ccc(Cl)c(Cl)c2)C2=C(CC(C)(C)CC2=O)N1 (stereo not drawn) | 1.1 |  |
| CC1=C(C(=O)NCCc2c[nH]c3ccccc23)C(c2ccsc2)C2=C(CCCC2=O)N1 (stereo not drawn) | 1.64 |  |
| CC1=C(C(=O)NCCc2c[nH]c3ccccc23)C(c2ccsc2)C2=C(CC(C)(C)CC2=O)N1 (stereo not drawn) | 1.87 | Activity [2]: Dose-Dependent Effect |
| CC1=C(C(=O)NCCc2c[nH]c3ccccc23)C(c2c(Cl)cccc2Cl)C2=C(CC(C)(C)CC2=O)N1 (stereo not drawn) | 0.82 |  |

| SMILES | fold change (FC) [1] | further results |
| --- | --- | --- |
| COc1cc(C2C(C(=O)NCCc3c[nH]c4ccccc34)=C(C)NC3=C2C(=O)CC(C)(C)C3)cc(OC)c1OC (stereo not drawn) | 1.21 |  |
| CC(=O)CC(=O)NCCc1c[nH]c2ccccc12 | 1.18 |  |
| CC1=C(C(=O)NCCc2c[nH]c3ccccc23)C(c2ccc(OC(F)(F)F)cc2)C2=C(CC(C)(C)CC2=O)N1 (stereo not drawn) | 2.11 | Activity [2]: Dose-Dependent Effect |
| COc1ccc(C2C(C(=O)NCCc3c[nH]c4ccccc34)=C(C)NC3=C2C(=O)CC(C)(C)C3)cc1OC (stereo not drawn) | 1.3 |  |
| CC1=C(C(=O)NCCc2c(C)[nH]c3ccccc23)C(c2ccc(Cl)c(Cl)c2)C2=C(CC(C)(C)CC2=O)N1 (stereo not drawn) | 1.42 |  |
| NCCc1c[nH]c2ccccc12 | 1.08 |  |
| COc1ccc2[nH]cc(CCNC(=O)C3=C(C)NC4=C(C(=O)CC(C)(C)C4)C3c3ccc(Cl)c(Cl)c3)c2c1 (stereo not drawn) | 1.37 |  |
| CC1=C(C(=O)NCCc2c[nH]c3ccccc23)C(c2ccc(Cl)cc2)C2=C(CC(C)(C)CC2=O)N1 (stereo not drawn) | 1.49 |  |
| CC1=C(C(=O)NCCc2c[nH]c3ccccc23)C(c2ccc(F)cc2)C2=C(CCCC2=O)N1 (stereo not drawn) | 1.54 |  |
| O=C(NC(Cc1c[nH]c2ccccc12)C(=O)O)c1cccc(Cl)c1 (stereo not drawn) |  | inhibition [18]: 49% |
| CC1=C(C(=O)NCCc2c[nH]c3ccccc23)C(c2cccc([N+](=O)[O-])c2)C2=C(CCCC2=O)N1 (stereo not drawn) | 1.71 |  |
| CN(C)C(=N)NC(=N)N |  | fold change (FC) [19]: 1.86 |
| CC1=C(C(=O)NCCc2c[nH]c3ccccc23)C(c2ccco2)C2=C(CCCC2=O)N1 (stereo not drawn) | 1.62 |  |
| CC1=C(C(=O)NCCc2c[nH]c3ccccc23)C(c2ccc(O)c(O)c2)C2=C(CC(C)(C)CC2=O)N1 (stereo not drawn) | 0.99 |  |
| CCOC(=O)C1=C(C)NC2=C(C(=O)CC(C)(C)C2)C1c1ccc(Cl)c(Cl)c1 (stereo not drawn) | 1.92 |  |
| Cc1nc2c(c(-c3ccc(Cl)c(Cl)c3)c1C(=O)NCCc1c[nH]c3ccccc13)C(=O)CC(C)(C)C2 | 1.42 |  |
| CC1=C(C(=O)NCCc2c[nH]c3ccccc23)C(c2cccs2)C2=C(CC(C)(C)CC2=O)N1 (stereo not drawn) | 1.09 |  |
